Active and inactive are the calls of the source.
Columns and labels:
[1] = human group III sPLA2 inhibitors, dose response, biochemical, QFRET, IC50 (AID 743457);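 also: green fluorescence rise as the enzyme cleaves BODIPY PC-A2 in liposomes; potency for inhibition of the enzyme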
[2] = target: T1, Heat shock factor protein 1 (Mus musculus, UniProt P38532); experiment: inhibition of MG132-induced HSE-luciferase signal, confirmation, cell-based, NIH3T3, luminescence, dose retest (AID 2382); assay type: functional;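 also: NIH3T3 fibroblasts with HSF1-driven luciferase reporter stressed by proteasome inhibitor MG132; luminescence from HSF1-driven luciferase expression after 8 hours of MG132 stress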
T1 sequence (P38532 whole entry): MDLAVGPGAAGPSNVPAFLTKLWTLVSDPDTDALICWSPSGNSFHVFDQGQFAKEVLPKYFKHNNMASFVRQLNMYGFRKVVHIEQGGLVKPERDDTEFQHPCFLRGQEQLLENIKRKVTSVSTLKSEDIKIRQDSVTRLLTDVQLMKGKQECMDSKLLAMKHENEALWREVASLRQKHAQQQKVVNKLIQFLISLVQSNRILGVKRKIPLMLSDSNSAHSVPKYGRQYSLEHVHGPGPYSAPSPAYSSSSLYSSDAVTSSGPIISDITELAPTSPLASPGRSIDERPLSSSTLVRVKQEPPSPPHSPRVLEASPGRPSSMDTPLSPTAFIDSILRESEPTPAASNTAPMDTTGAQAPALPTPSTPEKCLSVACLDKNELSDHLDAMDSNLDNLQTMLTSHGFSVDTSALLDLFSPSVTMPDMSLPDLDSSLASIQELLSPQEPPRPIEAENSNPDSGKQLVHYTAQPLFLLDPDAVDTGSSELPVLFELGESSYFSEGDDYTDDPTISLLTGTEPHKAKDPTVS

HEK293 = experiment: cells; assay type: functional, cell-based; conditions: Homo sapiens
[3] = Vero E6 cell cytotoxicity, dose response, cytotoxicity control for non-replicating M. tuberculosis project, secondary assay (AID 492998); assay type: functional, VeroE6; conditions: Vero C1008
[4] = target: T2, Nuclear receptor subfamily 0 group B member 1 (Homo sapiens, UniProt P51843); experiment: Luminescence-based cell-based high throughput dose response assay for inhibitors of the orphan nuclear receptor subfamily 0, group B, member 1 (DAX1; NR0B1). [Related pubchem assays (depositor defined):AID504766, AID504790]; assay type: functional
T2 sequence (P51843 whole entry): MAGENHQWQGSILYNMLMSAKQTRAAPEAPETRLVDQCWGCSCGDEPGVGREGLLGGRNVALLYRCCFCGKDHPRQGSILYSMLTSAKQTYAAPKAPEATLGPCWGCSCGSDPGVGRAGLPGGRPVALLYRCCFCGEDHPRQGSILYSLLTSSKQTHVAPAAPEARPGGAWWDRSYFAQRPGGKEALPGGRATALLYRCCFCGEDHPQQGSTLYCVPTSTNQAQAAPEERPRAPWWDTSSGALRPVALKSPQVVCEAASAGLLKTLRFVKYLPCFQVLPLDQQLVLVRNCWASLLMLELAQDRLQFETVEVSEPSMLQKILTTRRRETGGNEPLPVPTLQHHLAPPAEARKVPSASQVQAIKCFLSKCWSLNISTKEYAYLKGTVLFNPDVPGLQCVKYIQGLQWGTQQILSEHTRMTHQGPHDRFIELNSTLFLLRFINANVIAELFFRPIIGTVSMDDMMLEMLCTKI

H4 = experiment: Luminescence Cell-Based Dose Response HTS to Identify Activators of 5'UTR Stem-Loop Driven Prion Protein mRNA Translation in H4 Neuroglioblastoma Cells. [Related pubchem assays: 1829 (Project Summary), 1814 (Primary HTS)]; assay type: functional; conditions: Homo sapiens
[5] = HepG2 cell cytotoxicity, dose response, cytotoxicity control for non-replicating M. tuberculosis project (AID 489018); assay type: functional; conditions: Mycobacterium tuberculosis
[6] = THP-1 cell cytotoxicity, dose response, cytotoxicity control for non-replicating M. tuberculosis project (AID 489025); assay type: functional
[7] = HepG2 cell cytotoxicity, dose response, cytotoxicity control, ATP luminescence, cherry-pick, activator set 2 (AID 1053143); assay type: functional, cell-based
[8] = Luminescence Cell-Based Dose Response HTS to Identify Activators of Luciferase Translation or Activity in H4 […] Cells. [Related pubchem assays: 1829 (Project Summary), 1814 (Primary HTS)]; assay type: functional
[9] = inhibitors of intracellular T. cruzi replication, confirmation, NIH3T3 host cells, beta-gal luminescence (AID 2044); assay type: functional, cell-based;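 also: intracellular parasites grown in NIH/3T3 mouse fibroblasts as host cells; luminescent beta-galactosidase reporter signal from transgenic T. cruzi replicating inside host cells; inhibitors lower the luminescence signal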
[10] = HeLa cell cytotoxicity, dose response, cytotoxicity control for MgcRacGAP inhibitor project (AID 624300); assay type: functional
[11] = cytotoxicity toward NIH3T3 fibroblasts, dose response, counter-screen, cell-based, ATP luminescence, mouse fibroblasts (AID 2010); assay type: functional;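 also: cells exposed to compound for about 90 hours before reading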
[12] = target: T3, Rac GTPase-activating protein 1 (Homo sapiens, UniProt Q9H0H5); experiment: MgcRacGAP GTPase-activating activity inhibitors, confirmation, biochemical, ADP Hunter fluorescence, primary and confirmatory (AID 624330); assay type: functional
T3 sequence (Q9H0H5 whole entry): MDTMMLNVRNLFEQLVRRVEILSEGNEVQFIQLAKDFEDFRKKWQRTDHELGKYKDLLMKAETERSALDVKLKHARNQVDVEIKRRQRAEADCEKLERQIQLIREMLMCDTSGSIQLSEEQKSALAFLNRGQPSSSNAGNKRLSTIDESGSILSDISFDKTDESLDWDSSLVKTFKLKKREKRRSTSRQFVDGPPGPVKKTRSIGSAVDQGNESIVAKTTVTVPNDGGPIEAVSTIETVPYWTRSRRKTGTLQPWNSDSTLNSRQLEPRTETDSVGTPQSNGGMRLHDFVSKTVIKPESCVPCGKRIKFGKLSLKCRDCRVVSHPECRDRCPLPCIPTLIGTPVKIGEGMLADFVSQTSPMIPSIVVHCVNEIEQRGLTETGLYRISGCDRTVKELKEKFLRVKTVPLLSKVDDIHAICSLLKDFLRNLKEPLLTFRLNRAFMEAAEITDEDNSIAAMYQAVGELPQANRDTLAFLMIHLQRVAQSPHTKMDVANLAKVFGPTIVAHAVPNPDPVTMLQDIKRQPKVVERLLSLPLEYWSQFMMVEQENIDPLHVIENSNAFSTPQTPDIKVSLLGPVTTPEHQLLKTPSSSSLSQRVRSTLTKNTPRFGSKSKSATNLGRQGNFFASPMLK

cells [13] = experiment: cells
Major prion protein = Major prion protein (Homo sapiens, UniProt P04156); assay type: functional, cell-based
[14] = target: Mitogen-activated protein kinase 10 (Homo sapiens, UniProt P53779); experiment: Dose response biochemical screening assay for inhibitors of c-Jun N-Terminal Kinase 3 (JNK3). [Related pubchem assays: 746 ]
Cytochrome P450 2D6 = Cytochrome P450 2D6 (Homo sapiens, UniProt P10635);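 also: CYP2D6 member of a cytochrome P450 panel assay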
cells [15] = assay type: functional, cell-based
[16] = target: T4, Trace amine-associated receptor 1 (Homo sapiens, UniProt Q96RJ0); experiment: Counterscreen for agonists of the human trace amine associated receptor 1 (hTAAR1): Fluorescence-based cell-based high throughput dose response assay to identify hTAAR1 agonist that also desensitize TAAR1 receptor response.; assay type: functional
T4 sequence (Q96RJ0 whole entry): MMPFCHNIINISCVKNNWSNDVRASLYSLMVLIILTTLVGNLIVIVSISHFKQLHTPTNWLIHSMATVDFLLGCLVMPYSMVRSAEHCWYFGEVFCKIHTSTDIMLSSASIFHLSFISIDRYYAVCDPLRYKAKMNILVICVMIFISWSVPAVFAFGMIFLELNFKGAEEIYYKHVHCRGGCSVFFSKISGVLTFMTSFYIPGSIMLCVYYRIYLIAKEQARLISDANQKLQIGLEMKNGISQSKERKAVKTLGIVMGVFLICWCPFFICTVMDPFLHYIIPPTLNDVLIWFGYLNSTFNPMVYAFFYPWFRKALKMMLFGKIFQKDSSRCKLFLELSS

[17] = target: T4, Trace amine-associated receptor 1; experiment: Fluorescence-based cell-based high throughput dose response assay to identify agonists of the human trace amine associated receptor 1 (TAAR1).; assay type: functional
cells [18] = assay type: functional, cell-based; remark: listed apart in the source
[19] = target: DNA repair protein RAD52 homolog (Homo sapiens, UniProt P43351); assay type: functional, biochemical
[20] = target: T5, Corticotropin-releasing factor receptor 2/Corticotropin-releasing factor-binding protein (Homo sapiens, UniProt P24387+Q13324); experiment: activators of CRF receptor 2 with binding protein – uHTS hits, confirmation (AID 602473); assay type: functional; conditions: read-out: EC50_Mean
T5 sequence (Q13324 whole entry): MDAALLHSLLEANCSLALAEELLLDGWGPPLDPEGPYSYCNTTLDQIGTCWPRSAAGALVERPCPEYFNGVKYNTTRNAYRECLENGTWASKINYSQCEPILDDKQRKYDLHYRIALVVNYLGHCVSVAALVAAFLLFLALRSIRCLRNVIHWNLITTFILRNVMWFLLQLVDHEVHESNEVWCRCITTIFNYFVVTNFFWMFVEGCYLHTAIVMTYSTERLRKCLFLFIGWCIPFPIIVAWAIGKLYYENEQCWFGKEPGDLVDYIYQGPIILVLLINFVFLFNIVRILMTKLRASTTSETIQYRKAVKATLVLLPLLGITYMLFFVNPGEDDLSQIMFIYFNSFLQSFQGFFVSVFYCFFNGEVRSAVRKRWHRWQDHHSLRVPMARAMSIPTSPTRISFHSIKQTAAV
T5 sequence (P24387 whole entry): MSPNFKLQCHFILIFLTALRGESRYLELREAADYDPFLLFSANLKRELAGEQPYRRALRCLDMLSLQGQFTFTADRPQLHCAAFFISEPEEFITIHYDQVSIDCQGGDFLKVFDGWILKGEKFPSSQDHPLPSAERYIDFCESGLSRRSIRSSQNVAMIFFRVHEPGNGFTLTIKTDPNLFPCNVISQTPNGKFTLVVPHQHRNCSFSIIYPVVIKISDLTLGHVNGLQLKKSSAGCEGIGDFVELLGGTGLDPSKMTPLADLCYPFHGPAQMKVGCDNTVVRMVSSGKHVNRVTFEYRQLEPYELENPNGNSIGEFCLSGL

[21] = target: T5, Corticotropin-releasing factor receptor 2/Corticotropin-releasing factor-binding protein; experiment: Dose Response confirmation of uHTS hits for small molecule antagonists of the CRF-binding protein and CRF-R2 receptor complex.; assay type: functional; conditions: read-out: IC50_Mean
[22] = NIH/3T3 fibroblast cytotoxicity, dose response, cytotoxicity control for T. cruzi growth inhibitor project, cell-based, cherry-pick samples, set 2 (AID 651817); assay type: functional; conditions: NIH3T3

## Fc1ccc(-n2c(S)nnc2-c2ccc3c(c2)OCO3)cc1Cl
[1]
  IC50: > 122 µM (inactive)

## Nc1ccccc1C(=O)NNC1=C(C(=O)C(F)(F)F)CCC1
[2]
  EC50: 36.6 µM (active)
HEK293
  IC50: > 2.5 µM (active)
[3]
  CC50: > 20 µM (active)
[4]
  IC50: > 67.5 µM (inactive)
H4
  EC50: 21.7 µM (active)
[5]
  CC50: > 20 µM (active)
[6]
  CC50: 14.1 µM (active)
[7]
  AC50: 26 µM (active)
[8]
  EC50: 39.2 µM (active)

## COCc1cc([S+]([O-])c2ccc(Cl)cc2)nc(C)n1 (centres undefined)
[9]
  EC50: 1.78 µM (active)
[10]
  CC50: 95 µM (active)
[11]
  EC50: > 60 µM (not active)
[12]
  IC50: 87.8 µM (active)

## Cn1c(N2CCC(C(N)=O)CC2)nc2c1c(=O)n(Cc1cccc(Br)c1)c(=O)n2C
Cells [13]
  IC50: > 138 µM (inactive)
Major prion protein
  IC50: 8.38 µM (active)

## COC(=O)c1sccc1NC(=O)C1CC=CCC1C(=O)O (centres undefined)
[14]
  IC50: 19.8 µM (not active)
Cells [13]
  IC50: > 138 µM (inactive)
Major prion protein
  IC50: 2.48 µM (active)

## c1ccc2cc(CC3=NCCN3)ccc2c1
Cytochrome P450 2D6
  AC50: 39.8 µM (inconclusive)
Cells [15]
  EC50: > 30 µM (inactive)
[16]
  IC50: 3.65 µM (active)
[17]
  EC50: 0.322 µM (active)
Cells [18]
  IC50: > 30 µM (inactive)

## Cc1ccc(-c2c[n+](CC(=O)Nc3nc(-c4ccc(F)cc4)cs3)c3n2CCC3)cc1
[19]
  AC50: 11.2 µM (active)
[20]
  EC50: > 53 µM (inactive)
[21]
  IC50: > 47.1 µM (inactive)

## C[C@H](CO)N1C[C@H](C)[C@H](CN(C)S(=O)(=O)c2ccc(Cl)cc2)Oc2c(NC(=O)c3nc4ccccc4s3)cccc2C1=O
[22]
  AC50: 21.9 µM (active)

## Cc1ccc2c(c1)-c1nc3ccccc3cc1/C2=N/C1CCCCC1
[7]
  AC50: 22.2 µM (active)

Reference: ChEMBL document CHEMBL1201862, “PubChem BioAssay data set” (2004)
